Experimental data: patent publication US20150005347A1, “NITROGEN-CONTAINING HETEROCYCLIC DERIVATIVE HAVING 2-IMINO GROUP AND PEST CONTROL AGENT INCLUDING THE SAME” (MEIJI SEIKA PHARMA CO., LTD., priority 2012, published 2015)
Where two headings read alike, the source gives them in different places.

How the values were obtained:
Assay type in all cases: in vivo
Coptotermes formosanus = test: Pest control test of Coptotermes formosanus, treated filter paper; details: 168 h, read-out: mortality of insects
Protocol: Test Example 27 Pest Control Test of Coptotermes formosanus
A filter paper was allowed to be soaked in a drug solution of the compound of the present invention at a predetermined concentration, which had been prepared with acetone. The filter paper was sufficiently blow-dried and then put into a plastic petri dish, and 5 insects of Coptotermes formosanus (worker ant) were each released thereto. Thereafter, the insects were left to stand in a thermostatic chamber (16 hours of light period-8 hours of dark period) at 25° C. […] The test was performed in duplicate.
Mortality of insects(%)={number of dead insects/(number of survived insects+number of dead insects)}×100

[1] = tested on: Nilaparvata lugens exhibiting drug resistance to imidacloprid; details: soil irrigation
Protocol: Test Example 18 Pest Control Test of Drug-Resistant Nilaparvata lugens
(§1) A rice seedling in pot culture was subjected to soil irrigation treatment with a drug solution of the compound of the present invention at a predetermined concentration, which had been prepared so as to be a 10% acetone water. […] Thereafter, the larvae were left to stand in a thermostatic chamber (16 hours of light period-8 hours of dark period) at 25° C. […] The test was performed in duplicate.
(§2) Mortality of larvae(%)={number of dead larvae/(number of survived larvae+number of dead larvae)}×100
Further, for the origin of test pests, bugs collected outdoors within the Kumamoto prefecture in 2007 as the drug resistant Nilaparvata lugens, and bugs collected within the Kagoshima prefecture and then successively reared indoors for a long time as the imidacloprid susceptible populations of Nilaparvata lugens were used.

[2] = tested on: Trigonotylus caelestialium; test: Pest control test of Trigonotylus caelestialium, wheat seedling dipping; details: Trigonotylus caelestialium
In short: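 Wheat seedlings (4 days post-sowing) dipped 30 s in compound in 50% acetone water with 0.05% Tween20, air-dried, then exposed to two second-instar larvae in a lidded glass tube at 25° C, water supplied from below. Larval mortality (%) = dead/(dead+survived)×100.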

Nilaparvata lugens = test: Pest control test of Nilaparvata lugens, soil irrigation treatment; details: soil irrigation treatment
Protocol: Test Example 12 Pest Control Test of Nilaparvata lugens
A rice seedling in pot culture was subjected to soil irrigation treatment with a drug solution of the compound of the present invention at a predetermined concentration, which had been prepared so as to be a 10% acetone water. Three days after the treatment, ten second instar larvae of Nilaparvata lugens were each released thereto. Thereafter, the larvae were left to stand in a thermostatic chamber (16 hours of light period-8 hours of dark period) at 25° C. […] The test was performed in duplicate.
as §2

[3] = tested on: Sogatella furcifera exhibiting drug resistance to fipronil; test: Soil irrigation test, Sogatella furcifera exhibiting drug resistance to fipronil
Protocol: Test Example 19 Pest Control Test of Sogatella furcifera
as §1, §2
In addition, for the origin of test pests, bugs collected within the city of Odawara in 2010 as the drug resistant Sogatella furcifera, and bugs collected within the city of Chigasaki in 1970 and then successively reared indoors for a long time as the susceptible populations of Sogatella furcifera were used.

Nephotettix cincticeps = test: Pest control test of Nephotettix cincticeps, soil irrigation treatment; details: for % Mortality, Test Example 14 Nephotettix cincticeps: soil irrigation treatment
Protocol: Test Example 14 Pest Control Test of Nephotettix cincticeps
A rice seedling in pot culture was subjected to soil irrigation treatment with a drug solution of the compound of the present invention at a predetermined concentration, which had been prepared so as to be a 10% acetone water. Three days after the treatment, five second instar larvae of Nephotettix cincticeps were each released thereto. Thereafter, the larvae were left to stand in a thermostatic chamber (16 hours of light period-8 hours of dark period) at 25° C. […] The test was performed in duplicate.
as §2

Laodelphax striatella = test: Pest control test of Laodelphax striatella, soil irrigation treatment of rice seedling; details: soil irrigation treatment
Source text: <Soil Irrigation Treatment Test>
Test Example 10 Pest Control Test of Laodelphax striatellua
A rice seedling in pot culture was subjected to soil irrigation treatment with a drug solution of the compound of the present invention at a predetermined concentration, which had been prepared so as to be a 10% acetone water. Three days after the treatment, ten second instar larvae of Laodelphax striatella were each released thereto. Thereafter, the larvae were left to stand in a thermostatic chamber (16 hours of light period-8 hours of dark period) at 25° C. […] The test was performed in duplicate.
as §2

Spodoptera litura = test: Pest control test against Spodoptera litura, cabbage leaf disk foliar spray; details: Spodoptera litura, foliar
Protocol: Test Example 2 Pest Control Test Against Spodoptera litura
A leaf disk having a diameter of 5.0 cm was cut out from a cabbage in pot culture, and a drug solution of the compound of the present invention at a predetermined concentration, which had been prepared so as to be a 50% acetone water (0.05% Tween20 available), was sprayed to the leaf disk. After an air drying process, third instar larvae were released thereto. Thereafter, the larvae were left to stand in a thermostatic chamber (16 hours of light period-8 hours of dark period) at 25° C. […] Test in duplicate.
as §2

Musca domestica = test: Pest control test of Musca domestica adults, sucrose pledget; details: 50 ppm in 40% sucrose liquid; four days after release
Protocol: Test Example 21 Pest Control Test of Musca domestica
A drug solution of the compound of the present invention, which had been adjusted to be 50 ppm with a 40% sucrose liquid, was adsorbed on a pledget, and the pledget was put into a vial. Two adults reared indoors were released thereto. Thereafter, the adults were left to stand indoors at room temperature of 25° C. […] When two adults were all agonized in death, it was judged to be effective.

[4] = 72 h, read-out: mortality of larvae
[5] = read-out: % Mortality, Test Example8 Trigonotylus caelestialium

FC(F)(F)C(=S)/N=c1\ccccn1Cc1ccc(Cl)nc1 [Compound 1-20, N-[1-((6-chloropyridin-3-yl)methyl)pyridin-2(1H)-ylidene]-2,2,2-trifluoroethanethioamide]
mortality at 0.5 µg/cm2 (Coptotermes formosanus): 100% | insecticidal effects against drug resistant Nilaparvata lugens ([1]; imidacloprid-resistant): high insecticidal effects | mortality of larvae against drug resistant populations compared with susceptible populations of Nilaparvata lugens ([1]; imidacloprid-resistant vs susceptible): equivalent mortality of larvae | mortality at 10 ppm [2, 4]: ≥ 80% | mortality at 50 ppm [2, 4]: ≥ 80% | mortality at 2 ppm [2, 5]: 50% | mortality at 10 ppm [2, 5]: 100% | mortality at 50 ppm [2, 5]: 100% | % Mortality, Test Example 12 Nilaparvata lugens (Nilaparvata lugens; 0.005 mg/pot): 80% | % Mortality, Test Example 12 Nilaparvata lugens (Nilaparvata lugens; 0.01 mg/pot): 85% | % Mortality, Test Example 12 Nilaparvata lugens (Nilaparvata lugens; 0.05 mg/pot): 100% | Insecticidal effects against Sogatella furcifera (mortality of larvae %), Drug resistant populations six days after the treatment ([3]; Rate 0.005 mg/pot): 53% | Insecticidal effects against Sogatella furcifera (mortality of larvae %), Drug resistant populations six days after the treatment ([3]; Rate 0.01 mg/pot): 88% | insecticidal effects against drug resistant Sogatella furcifera ([3]; fipronil-resistant): high insecticidal effects | mortality of larvae against drug resistant populations compared with susceptible populations of Sogatella furcifera ([3]; fipronil-resistant vs susceptible): equivalent mortality of larvae | % Mortality, Test Example 14 Nephotettix cincticeps (Nephotettix cincticeps; 0.0001 mg/pot): 67% | % Mortality, Test Example 14 Nephotettix cincticeps (Nephotettix cincticeps; 0.001 mg/pot): 67% | % Mortality, Test Example 14 Nephotettix cincticeps (Nephotettix cincticeps; 0.01 mg/pot): 100% | mortality of larvae (Nephotettix cincticeps; soil irrigation, 0.05 mg/seedling, three days after release): ≥ 80% | % Mortality, Test Example 10 Laodelphax striatella (Laodelphax striatella; 0.005 mg/pot): 75% | % Mortality, Test Example 10 Laodelphax striatella (Laodelphax striatella; 0.01 mg/pot): 91% | % Mortality, Test Example 10 Laodelphax striatella (Laodelphax striatella; 0.05 mg/pot): 100% | mortality at 100 ppm (Spodoptera litura; [4]): ≥ 80% | mortality at 100 ppm (Spodoptera litura; read-out: % Mortality, Test Example2 Spodoptera litura): 90% | activity against adults (effective when two adults were all agonized in death) (Musca domestica): all the adults are agonized in death
